The values below come from ChEMBL document CHEMBL1131396, “Structure-activity studies related to ABT-594, a potent nonopioid analgesic agent: effect of pyridine and azetidine ring substitutions on nicotinic acetylcholine receptor binding affinity and analgesic activity in mice” (Bioorg Med Chem Lett, 1998).

The species named for one experiment is Mus musculus. Put plainly: Analgesic activity in a mouse hot plate assay. It counts as functional. On the technique in general: Thermal pain tests record how soon the animal reacts.
Experiment [1] addresses Neuronal acetylcholine receptor; alpha4/beta2 (Rattus norvegicus, UniProt P09483+P12390). Put plainly: Binding affinity towards Nicotinic acetylcholine receptor alpha4-beta2 in rat brain using [3H]-cytisine as radioligand. In kind it is tissue-based.
Experiment [2] concerns IMR-32. Briefly: Maximal response of compound was determined in an in vitro [86Rb+] release assay using IMR-32 cells. In kind it is functional, Homo sapiens.
The subject of experiment [3] is IMR-32. Put plainly: Maximal response of compound at 10 uM concentration in an in vitro [86Rb+] release assay using IMR-32 cells. In kind it is functional, Homo sapiens.
For experiment [4], the system named is IMR-32. Briefly: Maximal response of compound at 1 uM concentration in an in vitro [86Rb+] release assay using IMR-32 cells. It counts as functional, Homo sapiens.
In experiment [5] the test system is IMR-32. Put plainly: Maximal response of compound at concentration 3 uM concentration in an in vitro [86Rb+] release assay using IMR-32 cells. In kind it is functional, Homo sapiens.

Bounds are passed on as bounds.

Neuronal acetylcholine receptor; alpha4/beta2, sequence (P09483 whole entry): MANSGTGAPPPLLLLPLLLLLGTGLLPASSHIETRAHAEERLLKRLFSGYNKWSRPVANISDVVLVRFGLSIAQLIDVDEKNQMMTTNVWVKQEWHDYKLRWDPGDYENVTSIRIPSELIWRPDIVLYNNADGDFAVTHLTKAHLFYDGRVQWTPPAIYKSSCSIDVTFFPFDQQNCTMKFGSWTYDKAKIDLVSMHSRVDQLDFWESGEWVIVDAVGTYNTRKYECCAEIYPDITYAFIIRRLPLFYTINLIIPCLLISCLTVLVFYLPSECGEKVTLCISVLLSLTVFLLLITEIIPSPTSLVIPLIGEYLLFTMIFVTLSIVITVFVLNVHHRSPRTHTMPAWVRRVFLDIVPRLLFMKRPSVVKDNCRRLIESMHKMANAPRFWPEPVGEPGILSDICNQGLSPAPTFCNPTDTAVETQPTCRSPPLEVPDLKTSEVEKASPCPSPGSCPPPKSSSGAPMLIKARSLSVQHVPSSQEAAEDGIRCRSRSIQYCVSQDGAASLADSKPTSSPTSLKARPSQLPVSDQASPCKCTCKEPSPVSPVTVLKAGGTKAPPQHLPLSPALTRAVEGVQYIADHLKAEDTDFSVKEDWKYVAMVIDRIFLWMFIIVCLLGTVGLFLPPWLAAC
Neuronal acetylcholine receptor; alpha4/beta2, sequence (P12390 whole entry): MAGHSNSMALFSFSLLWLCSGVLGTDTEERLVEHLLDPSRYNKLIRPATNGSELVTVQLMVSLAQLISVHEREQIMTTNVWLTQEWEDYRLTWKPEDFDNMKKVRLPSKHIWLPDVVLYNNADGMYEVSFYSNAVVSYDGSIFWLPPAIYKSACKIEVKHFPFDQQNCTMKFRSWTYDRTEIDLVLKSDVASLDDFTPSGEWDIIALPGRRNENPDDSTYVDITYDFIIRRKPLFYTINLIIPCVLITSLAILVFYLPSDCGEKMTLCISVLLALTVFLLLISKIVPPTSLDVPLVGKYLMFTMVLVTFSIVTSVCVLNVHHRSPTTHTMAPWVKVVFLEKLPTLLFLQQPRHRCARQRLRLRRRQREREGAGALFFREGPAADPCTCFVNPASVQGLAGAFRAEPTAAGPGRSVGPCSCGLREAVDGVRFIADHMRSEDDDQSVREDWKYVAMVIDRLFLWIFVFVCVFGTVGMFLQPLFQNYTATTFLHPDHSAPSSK

Broadly, the Ki is a dissociation constant, usually derived from enzyme kinetics or from competition with a known ligand. Read a high Ki as a looser hold on the target. For the molecule `Nc1cncc(OC[C@@H]2CCN2)c1`, the MED in the experiment filed under Mus musculus was over 62 µM/kg. For the same molecule, the Ki in experiment [1] was found to be 0.082 nM.

For `Clc1cncc(OC[C@@H]2CCN2)c1`, the MED in the experiment filed under Mus musculus was over 6.2 µM/kg. In experiment [1], this molecule yielded a Ki of 0.042 nM.

Take `Cc1cncc(OC[C@H]2CCN2)c1`: the MED in the experiment listed under Mus musculus was 62 µM/kg. In experiment [1], this molecule registered a Ki of 0.16 nM. `c1cncc(OC[C@@H]2CCN2)c1` had an MED in the experiment filed under Mus musculus of over 6.2 µM/kg. In addition, the Ki in experiment [1] was 0.052 nM. In the experiment on IMR-32 [2], the Max response is listed as 113%. In the case of `Clc1ncc(OC[C@@H]2CCN2)cc1Br`, the MED in the experiment listed under Mus musculus is 1.9 µM/kg. The Ki in experiment [1] stood at 0.015 nM.

In turn, `C[C@@H]1CN[C@H]1COc1ccc(Cl)nc1` came in with a Ki in experiment [1] of 7.6 nM. For the molecule `CCc1cncc(OC[C@@H]2CCN2)c1`, in the experiment filed under Mus musculus, the MED is over 62 µM/kg. The same molecule displayed a Ki in experiment [1] of 0.1 nM. In addition, in the experiment with IMR-32 [3], the Max response turned out to be 90%. On to `Clc1ncccc1OC[C@@H]1CCN1`, for which the MED in the experiment filed under Mus musculus is 62 µM/kg. `Clc1ccncc1OC[C@H]1CCN1` gave an MED in the experiment filed under Mus musculus of over 6.2 µM/kg. The Ki in experiment [1] amounted to 12 nM.

In the experiment filed under Mus musculus, `Oc1cncc(OC[C@H]2CCN2)c1` returned an MED of over 62 µM/kg. Also, the inhibition constant Ki in experiment [1] worked out at 0.088 nM. In the experiment listed under Mus musculus, `Clc1cncc(OC[C@H]2CCN2)c1` registered an MED of 62 µM/kg.

In the case of `CCOc1cncc(OC[C@@H]2CCN2)c1`, the MED in the experiment listed under Mus musculus stood at 62 µM/kg. The Ki in experiment [1] was 0.039 nM.

For `NCc1cncc(OC[C@@H]2CCN2)c1`, the MED in the experiment listed under Mus musculus was over 6.2 µM/kg. In addition, affinity in experiment [1] was put at a Ki of 4.4 nM. As for `Cc1ccc(OC[C@H]2CCN2)cn1`, in the experiment listed under Mus musculus, the MED was 6.2 µM/kg. The molecule also gave a Ki in experiment [1] of 0.053 nM. `Clc1ncc(OC[C@@H]2CCN2)cc1-c1ccccc1` yielded an MED in the experiment filed under Mus musculus of over 6.2 µM/kg. This molecule gave a Max response with IMR-32 [4] of 92%. Further, the affinity in experiment [1] corresponds to a Ki of 0.022 nM. `Fc1ncccc1OC[C@@H]1CCN1`: the MED in the experiment listed under Mus musculus came out at 1.9 µM/kg. For `Cc1cncc(OC[C@@H]2CCN2)c1`, the MED in the experiment filed under Mus musculus was over 62 µM/kg. This molecule had a Ki in experiment [1] of 0.047 nM. Consider `c1ccc(-c2ccc(OC[C@@H]3CCN3)cn2)cc1`, for which, in the experiment filed under Mus musculus, the MED is over 62 µM/kg. In experiment [1], this molecule had a Ki of 2.3 nM. On to `Fc1cncc(OC[C@@H]2CCN2)c1`, for which the MED in the experiment listed under Mus musculus came out at 6.2 µM/kg. In addition, the Ki in experiment [1] came to 0.076 nM.

`Brc1cncc(OC[C@@H]2CCN2)c1` displayed an MED in the experiment listed under Mus musculus of over 19 µM/kg. In experiment [1], this molecule yielded a Ki of 0.18 nM. `COc1ccc(OC[C@H]2CCN2)cn1` displayed an MED in the experiment listed under Mus musculus of over 62 µM/kg. `Fc1ncccc1OC[C@H]1CCN1` gave an MED in the experiment listed under Mus musculus of over 62 µM/kg. In turn, `FC(F)(F)c1cncc(OC[C@@H]2CCN2)c1` returned an MED in the experiment listed under Mus musculus of over 19 µM/kg. This molecule yielded a Ki in experiment [1] of 0.49 nM. The matching figures for `Clc1ccncc1OC[C@@H]1CCN1`: over 62 µM/kg and 260 nM.

`Cc1nc(Cl)ccc1OC[C@@H]1CCN1` gave an MED in the experiment filed under Mus musculus of over 62 µM/kg. In addition, in experiment [1], the inhibitory constant (Ki) amounted to 2.4 nM. Molecule `N#Cc1cncc(OC[C@@H]2CCN2)c1` yielded an MED in the experiment filed under Mus musculus of over 6.2 µM/kg. This molecule had an inhibition constant Ki in experiment [1] of 0.025 nM. In turn, `CC1(C)CN[C@H]1COc1ccc(Cl)nc1` returned a Ki in experiment [1] of 37 nM. Regarding `Clc1cc(OC[C@@H]2CCN2)cnc1Cl`, the MED in the experiment filed under Mus musculus came to 0.62 µM/kg. This molecule also showed a Ki in experiment [1] of 0.023 nM. In turn, `Clc1ccc(OC[C@H]2CCN2)cn1` [TEBANICLINE] registered an MED in the experiment filed under Mus musculus of 0.62 µM/kg. The affinity in experiment [1] corresponds to a Ki of 0.04 nM. Take `Brc1ccc(OC[C@@H]2CCN2)cn1`: the MED in the experiment listed under Mus musculus was over 6.2 µM/kg. Besides, the affinity in experiment [1] corresponds to a Ki of 0.021 nM. Take `Clc1ncccc1OC[C@H]1CCN1`: the MED in the experiment filed under Mus musculus worked out at 62 µM/kg.

As for `Cc1ncccc1OC[C@@H]1CCN1`, the MED in the experiment listed under Mus musculus was over 62 µM/kg. This molecule also showed a Ki in experiment [1] of 1.36 nM. The matching figures for `Cc1ccc(OC[C@@H]2CCN2)cn1`: 0.62 µM/kg and 0.057 nM.

For the molecule `CCc1ccc(OC[C@@H]2CCN2)cn1`, the MED in the experiment filed under Mus musculus was over 6.2 µM/kg. This molecule also yielded a Ki in experiment [1] of 19 nM. For the molecule `O=[N+]([O-])c1cncc(OC[C@@H]2CCN2)c1`, the MED in the experiment filed under Mus musculus turned out to be 62 µM/kg. Take `c1ccc(-c2cncc(OC[C@@H]3CCN3)c2)cc1`: in the experiment listed under Mus musculus, the MED is over 62 µM/kg. The molecule further showed an inhibitory constant (Ki) in experiment [1] of 0.046 nM. The same molecule yielded a Max response in the experiment with IMR-32 [5] of 45%. In the experiment filed under Mus musculus, `CC(=O)NCc1cncc(OC[C@@H]2CCN2)c1` had an MED of over 62 µM/kg. In experiment [1], this molecule displayed a Ki of 0.54 nM.

Molecule `N#Cc1ccc(OC[C@@H]2CCN2)cn1` yielded an MED in the experiment listed under Mus musculus of 62 µM/kg. Same read-out and setting: to `Brc1ccc(OC[C@H]2CCN2)cn1` belongs 0.62 µM/kg. For `C=Cc1ccc(OC[C@@H]2CCN2)cn1`, in the experiment listed under Mus musculus, the MED was over 62 µM/kg. In experiment [1], this molecule displayed an inhibition constant Ki of 1.25 nM. In the same order, the values of `Fc1ccc(OC[C@H]2CCN2)cn1` are 1.9 µM/kg and 0.066 nM.

The molecule `CCCc1cncc(OC[C@@H]2CCN2)c1` came in with an MED in the experiment filed under Mus musculus of 62 µM/kg. The same molecule showed a Ki in experiment [1] of 0.039 nM. As for `COc1ccc(OC[C@@H]2CCN2)cn1`, the MED in the experiment filed under Mus musculus is over 62 µM/kg. In experiment [1], the Ki came out at 1.3 nM. `Clc1ccc(OC[C@@H]2CCN2)cn1` displayed an MED in the experiment filed under Mus musculus of 0.62 µM/kg. The same molecule yielded a Ki in experiment [1] of 0.04 nM. The same molecule had a Max response in the experiment with IMR-32 [2] of 166%.

In turn, `Fc1ccc(OC[C@@H]2CCN2)cn1` came in with an MED in the experiment filed under Mus musculus of 6.2 µM/kg. In experiment [1], this molecule registered a Ki of 0.057 nM.
